Test results reported in patent US9580390B2, “Indazole compounds as kinase inhibitors and method of treating cancer with same” (University Health Network, priority 2011, dated 2017).

How the values were obtained:
[1] = tested on: ovarian cancer cells (PA-1); test: Cancer cell line growth inhibition (SRB assay); format: cell-based; conditions: Homo sapiens, PA-1; read-out: Cancer Cell Line GI50 Range PA-1
Breast cancer cells = test: Cancer cell line growth inhibition (SRB assay); format: cell-based; conditions: Homo sapiens; MDA-MB-468; read-out: Cancer Cell Line GI50 Range MDA-MB-468
[2] = tested on: colon cancer cells (HCT116); test: Cancer cell line growth inhibition (SRB assay); format: cell-based; conditions: Homo sapiens, HCT-116; read-out: Cancer Cell Line GI50 Range HCT116
human TTK = molecular target: T1, human TTK (Homo sapiens, UniProt P33981); test: TTK inhibition assay (indirect ELISA); format: biochemical; conditions: read-out: TTK IC50 Range
T1 construct: amino terminal GST fusion of full length human TTK; purchased Invitrogen
T1 sequence (P33981 1-857): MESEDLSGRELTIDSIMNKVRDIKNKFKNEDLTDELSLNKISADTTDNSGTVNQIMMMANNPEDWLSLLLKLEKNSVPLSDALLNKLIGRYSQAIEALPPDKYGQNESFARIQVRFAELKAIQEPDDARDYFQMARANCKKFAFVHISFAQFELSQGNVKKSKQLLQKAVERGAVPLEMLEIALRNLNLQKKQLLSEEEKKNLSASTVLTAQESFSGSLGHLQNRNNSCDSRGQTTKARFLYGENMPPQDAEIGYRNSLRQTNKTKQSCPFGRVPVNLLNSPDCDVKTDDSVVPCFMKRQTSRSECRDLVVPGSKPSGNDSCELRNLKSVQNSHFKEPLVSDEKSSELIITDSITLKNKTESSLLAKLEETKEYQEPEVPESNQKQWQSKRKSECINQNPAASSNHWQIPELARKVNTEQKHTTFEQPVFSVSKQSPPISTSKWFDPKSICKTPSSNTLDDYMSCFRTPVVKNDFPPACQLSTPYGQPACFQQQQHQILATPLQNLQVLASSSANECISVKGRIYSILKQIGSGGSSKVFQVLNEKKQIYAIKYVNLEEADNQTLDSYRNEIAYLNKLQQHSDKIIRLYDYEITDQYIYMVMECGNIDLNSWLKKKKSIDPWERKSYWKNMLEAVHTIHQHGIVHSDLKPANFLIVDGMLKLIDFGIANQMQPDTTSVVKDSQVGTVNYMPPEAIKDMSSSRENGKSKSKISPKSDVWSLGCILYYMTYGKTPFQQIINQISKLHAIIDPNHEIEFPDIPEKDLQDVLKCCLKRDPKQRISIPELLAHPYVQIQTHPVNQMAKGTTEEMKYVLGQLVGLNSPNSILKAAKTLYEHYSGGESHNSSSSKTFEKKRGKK

human PLK4 = molecular target: T2, human PLK4 (Homo sapiens, UniProt O00444); test: PLK4 inhibition assay (indirect ELISA); format: biochemical; conditions: 15 μM ATP
T2 construct: amino terminal GST fusion of residues 1-391 of human PLK4; made in house; host or cells: E. coli
T2 sequence (O00444 1-391): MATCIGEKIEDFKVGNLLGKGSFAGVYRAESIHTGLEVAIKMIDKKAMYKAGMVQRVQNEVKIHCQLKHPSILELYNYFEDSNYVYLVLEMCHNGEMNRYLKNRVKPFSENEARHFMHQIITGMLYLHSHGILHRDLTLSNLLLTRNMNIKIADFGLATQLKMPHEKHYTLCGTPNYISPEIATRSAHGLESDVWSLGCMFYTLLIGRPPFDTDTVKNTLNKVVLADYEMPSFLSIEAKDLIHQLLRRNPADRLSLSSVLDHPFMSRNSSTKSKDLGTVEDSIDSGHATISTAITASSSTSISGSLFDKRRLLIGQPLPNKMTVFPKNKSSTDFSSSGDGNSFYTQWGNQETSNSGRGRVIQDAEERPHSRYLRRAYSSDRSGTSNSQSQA
Protocol: Active PLK4 was purified from an E. coli expression system as an amino terminal GST fusion of residues 1-391 of human PLK4. The protein was purified from clarified cell extracts after induction at 15° C. overnight using glutathione sepharose, gel permeation chromatography, and ion exchange (Resource Q). The resulting protein was dephosphorylated with lambda phosphatase (NEB cat# P0753), and resolved from the phosphatase using gluthione sepharose. The dephosphorylated GST-PLK4 was stored in aliquots at −80° C. until use.
PLK4 activity was measured using an indirect ELISA detection system. Dephosphorylated GST-PLK4 (4 nM) was incubated in the presence of 15 μM ATP (Sigma cat# A7699), 50 mM HEPES-[…] pH 7.4, 10 mM MgCl2, 0.01% Brij 35 (Sigma cat# 03-3170), in a 96 well microtitre plate pre-coated with MBP (Millipore cat#30-011). The reaction was allowed to proceed for 30 minutes, followed by 5 washes of the plate with Wash Buffer (50 mM TRIS-Cl pH 7.4 and 0.2% Tween 20), and incubation for 30 minutes with a 1:3000 dilution of primary antibody (Cell Signaling cat# 9381). The plate was washed 5 times with Wash Buffer, incubated for 30 minutes in the presence of secondary antibody coupled to horse radish peroxidase (BioRad cat# 1721019, 1:3000 concentration), washed an additional 5 times with Wash Buffer, and incubated in the presence of TMB substrate (Sigma cat# T0440). The colourimetric reaction was allowed to continue for 5 minutes, followed by addition of stop solution (0.5 N sulphuric acid), and quantified by detection at 450 nm with either a monochromatic or filter based plate reader (Molecular Devices M5 or Beckman DTX880, respectively).
Compound inhibition was determined at either a fixed concentration (10 μM) or at a variable inhibitor concentration (typically 50 μM to 0.1 μM in a 10 point dose response titration). Compounds were pre-incubated in the presence of enzyme for 15 minutes prior to addition of ATP and the activity remaining quantified using the above described activity assay. The % Inhibition of a compound was determined using the following formula: % Inhibition=100×(1−(experimental value−background value)/(high activity control−background value)). The IC50 value was determined using a non-linear 4 point logistic curve fit (XLfit4, IDBS) with the formula: (A+(B/(1+((x/C)^D)))), where A=background value, B=range, C=inflection point, D=curve fit parameter.

Row | SMILES | GI50 [1] | GI50 (Breast cancer cells) | GI50 [2] | IC50 (human TTK) | IC50 (human PLK4)
1 | O=C(N[C@@H](c1ccsc1)C1CCCC1)c1ccc2[nH]nc(-c3ccc(OC4CCN(CCO)CC4)cc3)c2c1 [Example A219, (R)-N-(cyclopentyl(thiophen-3-yl)methyl)-3-(4-((1-(2-hydroxyethyl)piperidin-4-yl)oxy)phenyl)-1H-indazole-5-carboxamide] | < 100 nM | 100 to 500 nM | 100 to 500 nM | < 100 nM | < 50 nM
2 | C[C@@H](O)CN1CCC(Oc2ccc(-c3n[nH]c4ccc(C(=O)N[C@H](c5ccsc5)C5CC5)cc34)cc2)CC1 [Example A220, N-((S)-cyclopropyl(thiophen-3-yl)methyl)-3-(4-((1-((R)-2-hydroxypropyl)piperidin-4-yl)oxy)phenyl)-1H-indazole-5-carboxamide] | < 100 nM | 100 to 500 nM | 100 to 500 nM | < 100 nM | < 50 nM
3 | CN1C2CCC1CC(Oc1ccc(-c3n[nH]c4ccc(C(=O)N[C@H](c5ccsc5)C5CCCC5)cc34)cc1)C2 (stereo partly drawn) [Example A248, N-((S)-cyclopentyl(thiophen-3-yl)methyl)-3-(4-(((1R,3R,5S)-8-methyl-8-azabicyclo[3.2.1]octan-3-yl)oxy)phenyl)-1H-indazole-5-carboxamide] | 100 to 500 nM | 100 to 500 nM | 100 to 500 nM | < 100 nM | < 50 nM
4 | CN1CCC2(CCc3cc(-c4n[nH]c5ccc(C(=O)N[C@H](c6ccccc6)C6CC6)cc45)ccc3O2)CC1 [Example A249, (S)-N-(cyclopropyl(phenyl)methyl)-3-(1′-methylspiro[chroman-2,4′-piperidin]-6-yl)-1H-indazole-5-carboxamide] | 100 to 500 nM | 100 to 500 nM | 100 to 500 nM | < 100 nM | < 50 nM
5 | CC(C)[C@H](NC(=O)c1ccc2[nH]nc(-c3ccc4c(c3)CCC3(CCN(C)CC3)O4)c2c1)c1ccccc1Cl [Example A250, (S)-N-(1-(2-chlorophenyl)-2-methylpropyl)-3-(1′-methylspiro[chroman-2,4′-piperidin]-6-yl)-1H-indazole-5-carboxamide] | < 100 nM | 100 to 500 nM | < 100 nM | < 100 nM | < 50 nM
6 | CN1CCC2(CCc3cc(-c4n[nH]c5ccc(C(=O)N[C@H](c6ccccn6)C6CCCC6)cc45)ccc3O2)CC1 [Example A253, (S)-N-(cyclopentyl(pyridin-2-yl)methyl)-3-(1′-methylspiro[chroman-2,4′-piperidin]-6-yl)-1H-indazole-5-carboxamide] | < 100 nM | 100 to 500 nM | < 100 nM | < 100 nM | < 50 nM
7 | CC(C)C[C@H](NC(=O)c1ccc2[nH]nc(-c3ccc(N4CCN(C5COC5)CC4)cc3)c2c1)c1ccccc1F [Example A275, (S)-N-(1-(2-fluorophenyl)-3-methylbutyl)-3-(4-(4-(oxetan-3-yl)piperazin-1-yl)phenyl)-1H-indazole-5-carboxamide] | < 100 nM | < 100 nM | < 100 nM | < 100 nM | < 50 nM
8 | CN1[C@@H]2CC[C@H]1C[C@@H](Oc1ccc(-c3n[nH]c4ccc(C(=O)NC(c5ccccc5Cl)C5CC5)cc34)cc1)C2 (stereo partly drawn) [Example A280, N-((2-chlorophenyl)(cyclopropyl)methyl)-3-(4-(((1R,3R,5S)-8-methyl-8-azabicyclo[3.2.1]octan-3-yl)oxy)phenyl)-H-indazole-5-carboxamide] | < 100 nM | 100 to 500 nM | < 100 nM | < 100 nM | < 50 nM
9 | CC(C)[C@H](NC(=O)c1ccc2[nH]nc(-c3ccc(OC4CN(C5COC5)C4)cc3)c2c1)c1ccccc1Cl [Example A296, (S)-N-(1-(2-chlorophenyl)-2-methylpropyl)-3-(4-((1-(oxetan-3-yl)azetidin-3-yl)oxy)phenyl)-1H-indazole-5-carboxamide] | < 100 nM |  | < 100 nM | < 100 nM | < 50 nM
10 | CC(C)(C)CC(NC(=O)c1ccc2[nH]nc(-c3ccc(N4CCN(C5COC5)CC4)cc3)c2c1)c1ccccc1F (stereo not shown) [Example A308, N-(1-(2-fluorophenyl)-3,3-dimethylbutyl)-3-(4-(4-(oxetan-3-yl)piperazin-1-yl)phenyl)-1H-indazole-5-carboxamide] |  |  |  | < 100 nM | < 50 nM
11 | O=C(NC(c1ccsc1)C1CCC1)c1ccc2[nH]nc(-c3ccc(OC4CCN(C5COC5)CC4)cc3)c2c1 (stereo not shown) [Example A331, N-(cyclobutyl(thiophen-3-yl)methyl)-3-(4-((1-(oxetan-3-yl)piperidin-4-yl)oxy)phenyl)-1H-indazole-5-carboxamide] | < 100 nM |  | < 100 nM | < 100 nM | < 50 nM
12 | O=C(N[C@H](c1ccccc1)C1CC1)c1ccc2[nH]nc(-c3ccc(OC4CC5CCC(C4)N5C4COC4)cc3)c2c1 (stereo partly drawn) [Example A336, N-((S)-cyclopropyl(phenyl)methyl)-3-(4-(((1R,3R,5S)-8-(oxetan-3-yl)-8-azabicyclo[3.2.1]octan-3-yl)oxy)phenyl)-1H-indazole-5-carboxamide] | 100 to 500 nM |  | 100 to 500 nM | < 100 nM | < 50 nM
13 | CCC(CNC(=O)c1ccc2[nH]nc(-c3ccc(OC4CCN(C)CC4)cc3)c2c1)c1ccccc1 (stereo not shown) [Example A408, 3-(4-((1-methylpiperidin-4-yl)oxy)phenyl)-N-(2-phenylbutyl)-1H-indazole-5-carboxamide] |  |  |  | < 100 nM | < 50 nM
14 | CC(C)(C)C[C@H](NC(=O)c1ccc2[nH]nc(-c3ccc(N4C5COCC4CC(O)C5)cc3)c2c1)c1ccccc1 (stereo partly drawn) [Example A426, N-((S)-3,3-dimethyl-1-phenylbutyl)-3-(4-((1R,5S,7R)-7-hydroxy-3-oxa-9-azabicyclo[3.3.1]nonan-9-yl)phenyl)-1H-indazole-5-carboxamide] |  |  |  | < 100 nM | < 50 nM
